From PubChem BioAssay AID1421 (Emory University Molecular Libraries Screening Center, 2008)
Active and inactive are the calls of the source. How the calls were made is not given here.

The compounds below were run against Prostaglandin E2 receptor EP2 subtype (Homo sapiens) (UniProt P43116) (assay: compounds shifting PGE2 potency at EP2 – cell-based, human EP2, PGE2 EC50 shift, dose response (AID 1421)). Conditions: EP2-expressing cells, PGE2 EC50 shift by compound.
Sequence of Prostaglandin E2 receptor EP2 subtype (Homo sapiens) (P43116 whole entry, looked up): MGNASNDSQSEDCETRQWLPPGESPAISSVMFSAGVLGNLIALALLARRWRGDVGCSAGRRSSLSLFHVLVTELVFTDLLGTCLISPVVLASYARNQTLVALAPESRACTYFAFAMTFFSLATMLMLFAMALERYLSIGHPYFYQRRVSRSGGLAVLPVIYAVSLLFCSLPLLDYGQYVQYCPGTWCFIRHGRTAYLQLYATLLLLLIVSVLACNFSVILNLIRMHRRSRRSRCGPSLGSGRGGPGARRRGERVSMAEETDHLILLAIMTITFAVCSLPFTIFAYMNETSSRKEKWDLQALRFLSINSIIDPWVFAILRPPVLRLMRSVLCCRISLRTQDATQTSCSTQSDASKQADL

| SMILES | outcome |
| --- | --- |
| O=C(Nc1ccccc1-c1ccccc1)c1ccc(Br)o1 | active |
| CC(C)CCNC(=O)c1c(N)n(CC2CCCO2)c2nc3ccccc3nc12 (centres undefined) | active |
| NC(=O)CSc1nc(-c2ccccc2)c(-c2ccccc2)o1 | active |
| Cc1cc(C)cc(C(=N)c2ccccc2Cc2cccc3ccccc23)c1 | active |
| C(=N/n1c2ccccc2c2ccccc21)/c1ccco1 | active |
| O=C1C2C3c4ccccc4C(c4ccccc43)[C@@H]2c2nc3ccccc3n21 (some centres undefined) | active |
| COc1ccc2c(c1)c(=O)c(Br)c(C)n2Cc1ccccc1 | active |

Same assay, conditions: EP2-expressing cells, PGE2 EC50 shift by compound; measured here: PGE2 EC50 at 6.7 uM compound

| SMILES | PGE2 EC50 with compound [nM] |
| --- | --- |
| Cc1ccc(/C=C/c2nc3ccccc3c(=O)n2CCc2ccccc2)cc1 | 1.15 |
| COC(=O)c1c(NC(=O)Cc2cccs2)sc2c1CCCC2 | 1.02 |
| CCOP(=O)(OCC)c1nc(-c2cccc3ccccc23)oc1NCc1ccccc1 | 2.48 |
| O=C(NCc1ccco1)c1ccc(=O)[nH]n1 | 1.06 |
| O=C(O)/C=C/C(O)c1ccc(Cl)cc1 (centres undefined) | 0.97 |
| CC(C)(C)C1CCc2onc(C(=O)Nc3cccnc3)c2C1 (centres undefined) | 1.31 |
| O=C1C2C3c4ccccc4C(c4ccccc43)C2c2nc3ccccc3n21 (centres undefined) | 1.4 |
| CCc1cc2cc3c(cc2nc1SCC(=O)OC(C)C)OCO3 | 0.7 |
| O=C(Nc1ccccc1-c1ccccc1)c1ccc(Br)o1 | 1.27 |
| CC1(c2ccccc2)CC(C)(C)N(C(=O)C2CCCO2)c2ccccc21 (centres undefined) | 0.9 |
| COc1ccc(C2=Nn3c(nnc3-c3ccc(OC)cc3)SC2)cc1 | 1.28 |
| CN(CC(=O)Nc1ccccc1-c1ccccc1)C1CCCCC1 | 0.51 |
| O=c1cc(N2CCCCC2)c(-c2ccccc2)nn1Cc1ccccc1 | 1.25 |
| CCOC(=O)c1ccccc1NC(=O)COc1ccccc1 | 1.04 |
| CCC1Oc2ccccc2N(Cc2ccccc2C)C1=O (centres undefined) | 2.7 |
| CCOC(=O)c1c(NC(=O)c2ccn(CC)n2)sc2c1CCCC2 | 1.14 |
| COc1ccc(N=N/C(=C\O)C(=O)c2cccs2)cc1 | 1.42 |
| COc1ccccc1C(CC(=O)c1ccccc1)CC(=O)c1ccccc1 | 2.56 |
| Cn1c(=O)c2c(SCc3cccnc3)nc(CC(C)(C)C)nc2n(C)c1=O | 2.57 |
| CC1(c2cc([N+](=O)[O-])cc([N+](=O)[O-])c2)CC(C)(C)N(C(=O)c2ccccc2)c2ccccc21 (centres undefined) | 1.32 |
| COCCOC(=O)c1c(C)oc2ccc(OCc3ccccc3)cc12 | 1.04 |
| COc1ccc(-c2nnc3ccc(SCC(=O)Nc4nc5ccccc5s4)nn23)cc1OC | 0.67 |
| Cn1c(=O)c2c(nc(CN3CCN(c4ccccc4)CC3)n2Cc2c(F)cccc2Cl)n(C)c1=O | 1.38 |
| Brc1ccccc1Cn1c(-c2cscn2)nc2ccccc21 | 0.94 |
| Cc1ccc(C(C)C)c(OCCn2c(=O)oc3ccccc32)c1 | 2.6 |
| Cc1ccccc1N=C1SCC(=O)N1Cc1ccccc1 | 1.2 |

| SMILES | PGE2 EC50 with compound [nM] |
| --- | --- |
| CC(C)CCNC(=O)c1c(N)n(CC2CCCO2)c2nc3ccccc3nc12 (centres undefined) | 0.95 |
| NC(=O)CSc1nc(-c2ccccc2)c(-c2ccccc2)o1 | 0.94 |
| CC(CC(=O)O)(CC(=O)O)C(=O)O | 0.87 |
| O=C(c1ccc(Br)o1)N(Cc1ccccc1)Cc1ccccc1 | 0.77 |
| Cc1cc(N)c2cc(NC(=O)Nc3ccc4nc(C)cc(N)c4c3)ccc2n1 | 2.6 |
| COc1ccc(-n2c(-c3cccc(OC)c3)nc(=S)c3c2CCCC3)cc1 | 2.89 |
| COC(=O)c1ccc(-n2nc(C(F)(F)F)c3c2-c2ccoc2CC3)cc1 | 0.79 |
| Clc1ccc(Cl)c(-c2ccc(/C=N/c3ncn[nH]3)o2)c1 | 1.34 |
| C=CCn1c(-c2oc3nc(-c4ccccc4)cc(-c4ccccc4)c3c2N)n[nH]c1=S | 1.45 |
| Cc1ccc(S(=O)(=O)N(CC(=O)N=Nc2c(O)[nH]c3ccccc23)c2ccc(C)c(C)c2)cc1 | 2.05 |
| COc1ccc(-c2noc(-c3ccccc3-c3ccccc3)n2)cc1OC | 0.31 |
| Cc1cccc(C)c1NC(=O)CSc1nc(COc2ccccc2)nc2ccccc12 | 0.82 |
| CCCCc1ccc(-n2c(Cc3cccs3)n[nH]c2=S)cc1 | 0.8 |
| O=c1[nH]ncc2c3ccccc3n(Cc3cccc(Cl)c3)c12 | 0.98 |
| O=C(CSCc1c(Cl)cccc1Cl)Nc1ccccc1-c1ccccc1 | 1.36 |
| O=S(=O)(O)c1ccc2c(N=Nc3c(O)ccc4ccccc34)cccc2c1 | 1.28 |
| Cc1cccc(NC(=O)CSc2ncnc3c2oc2ccccc23)c1 | 2.85 |
| Cc1ccc(S(=O)(=O)N2c3ccccc3OCC2C(C)(C)C)cc1 (centres undefined) | 2.69 |
| C=CCC(=O)OCCCCCCOc1ccc(C(=O)O)cc1 | 0.58 |
| CC(=O)N1c2ccccc2C(C)(c2ccccc2)CC1(C)C (centres undefined) | 2.45 |
| Cn1nc(C(F)(F)F)c(/C=N/OC(=O)c2ccccc2)c1Sc1ccc(Cl)cc1 | 1.31 |
| C[C@H]1CC[C@@H](C(C)(C)O)CC2=C1CC[C@@H]2C | 1.06 |
| CN(C)c1ncc(S(=O)(=O)c2ccccc2)c(-c2ccccc2Cl)n1 | 0.72 |
| COc1cc(OC)cc(-c2nc(N)n[nH]2)c1 | 0.8 |
| N#CCSc1nc2ccccc2c(=O)n1C1CCCCC1 | 1.09 |
| O=C(CSc1nnc(-c2cc3ccccc3cc2O)n1Cc1ccco1)c1ccc(F)cc1 | 1.35 |

| SMILES | PGE2 EC50 with compound [nM] |
| --- | --- |
| Cc1cc(C)cc(C(=N)c2ccccc2Cc2cccc3ccccc23)c1 | 1.22 |
| Cc1nc2c3cc(F)ccc3n(Cc3ccccc3)c2s1 | 0.57 |
| CCOc1ccc(C(C)=O)cc1CC(C(N)=O)C(N)=O | 1.11 |
| N#Cc1sc2nc(C3CC3)cc(-c3ccccc3)c2c1N | 0.78 |
| S=c1nc[nH]c2c1[nH]c1ccccc12 | 1.29 |
| CSc1ncnc2sc(C)c(C)c12 | 1.22 |
| C/C(=N\N=C(c1ccccc1)c1ccccc1)c1ccco1 | 0.97 |
| CC(=O)c1sc2nc(-c3ccc(C)cc3)c3c(c2c1N)CCCC3 | 2.47 |
| CC(C)NC(=S)NN=C1CCCCCCCCCCC1 | 0.97 |
| O=C(c1cc(-c2ccccn2)nc2ccc(Br)cc12)N1CCc2ccccc2C1 | 1.06 |
| CSc1nnc2c3ccccc3c3ccccc3c2n1 | 1 |
| NS(=O)(=O)c1ccc(NCc2cnc3ccccc3n2)cc1 | 0.64 |
| COc1ccccc1NC(=O)CSc1nnc(Cn2nnc(-c3ccccc3)n2)n1-c1ccccc1 | 0.55 |
| Cc1cc2ccccc2nc1SCC(=O)NC1CCCCC1 | 2.75 |
| O=C(COc1cccc2ccccc12)N1c2ccccc2CCc2ccccc21 | 1.19 |
| COC(=O)c1ccccc1NC(=O)c1cnn2c(C(F)F)cc(C3CC3)nc12 | 1.17 |
| C(=N/n1c2ccccc2c2ccccc21)/c1ccco1 | 1.08 |
| O=C(O)CSc1ccc2ccccc2n1 | 2.79 |
| O=C1C2C3c4ccccc4C(c4ccccc43)[C@@H]2c2nc3ccccc3n21 (some centres undefined) | 0.7 |
| C=CCn1c(=O)c(C(=O)NCCc2ccccc2)c(O)c2ccccc21 | 2.43 |
| COc1cc(S(=O)(=O)N(Cc2cccnc2)Cc2ccco2)ccc1-n1cnnn1 | 1.45 |
| C=CCc1cc(C=C2C(=O)N(C)C(=O)N(C)C2=O)cc(OCC)c1OCc1ccccc1 | 0.94 |
| O=C(O)c1ccc(CNCc2cccc(Cl)c2Cl)cc1 | 0.88 |
| O=C(Nc1ccccc1N1CCCCC1)c1ccc(F)cc1 | 1.01 |
| COc1ccc2c(c1)c(=O)c(Br)c(C)n2Cc1ccccc1 | 0.83 |
